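These data come from cells grown in 96-well plates and exposed to compound for 48 hours at five concentrations. TGI denotes the concentration required for complete inhibition of growth.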
Key:
Assay in all cases: DTP human tumour cell line panel, 48 h
[1] = test system: KM20L2 colon
[2] = test system: HT29 colon
[3] = test system: M14 melanoma
[4] = test system: HOP-62 NSCLC
[5] = test system: RXF 393 renal
[6] = test system: MOLT-4 leukemia
[7] = test system: CCRF-CEM leukemia
[8] = test system: EKVX NSCLC
[9] = test system: UACC-257 melanoma
[10] = test system: SK-OV-3 ovarian
[11] = test system: OVCAR-8 ovarian
[12] = test system: HOP-92 NSCLC
[13] = test system: KM12 colon
[14] = test system: SNB-78 CNS
[15] = test system: RXF-631 renal
[16] = test system: NCI-H23 lung
[17] = test system: OVCAR-5 ovarian
[18] = test system: HCT-15 colon
[19] = test system: LXFL 529 NSCLC
[20] = test system: SK-MEL-28 melanoma
[21] = test system: SN12C renal
[22] = test system: XF 498 CNS
[23] = test system: HCC-2998 colon
[24] = test system: K-562 leukemia
[25] = test system: CAKI-1 renal
[26] = test system: M19-MEL melanoma
[27] = test system: A498 renal
[28] = test system: A549 NSCLC
[29] = test system: SF-268 CNS
[30] = test system: HCT-116 colon
[31] = test system: UACC-62 melanoma
[32] = test system: U251 CNS
[33] = test system: NCI-H522 lung
[34] = test system: DLD-1 colon
[35] = test system: NCI-H226 lung
[36] = test system: SF-539 CNS
[37] = test system: SW-620 colon
[38] = test system: SR leukemia
[39] = test system: SK-MEL-5 melanoma
[40] = test system: DMS 273 small cell lung
[41] = test system: ACHN renal
[42] = test system: 786-0 renal
[43] = test system: NCI-H460 lung
[44] = test system: UO-31 renal
[45] = test system: SNB-19 CNS
[46] = test system: DMS 114 small cell lung
[47] = test system: COLO 205 colon
[48] = test system: MALME-3M melanoma
[49] = test system: OVCAR-4 ovarian
[50] = test system: SK-MEL-2 melanoma
[51] = test system: HL-60(TB) leukemia
[52] = test system: SF-295 CNS
[53] = test system: IGROV1 ovarian
[54] = test system: RPMI-8226 leukemia
[55] = test system: SNB-75 CNS
[56] = test system: OVCAR-3 ovarian
[57] = test system: TK-10 renal
[58] = test system: HOP-18 NSCLC
[59] = test system: LOX IMVI melanoma

For `Nc1cc2c(C3OC(CO)C(O)C3O)[nH]nc2c(=S)[nH]1` (stereo not given), the TGI [1] was over 100 µM, the TGI [2] was over 100 µM and the TGI [3] was over 100 µM. For the same compound, the TGI [4] was over 100 µM, the TGI [5] was over 100 µM and the TGI [6] was over 100 µM. The TGI [7] was over 100 µM, the TGI [8] was over 100 µM and the TGI [9] was over 100 µM. For the same compound, the TGI [10] was over 100 µM, the TGI [11] was over 100 µM and the TGI [12] was over 100 µM. It also gave a TGI [13] of over 100 µM, a TGI [14] of over 100 µM and a TGI [15] of over 100 µM. The TGI [16] was over 100 µM, the TGI [17] was over 100 µM and the TGI [18] was over 100 µM. The TGI [19] was over 100 µM, the TGI [20] was over 100 µM and the TGI [21] was over 100 µM. It also gave a TGI [22] of over 100 µM, a TGI [23] of over 100 µM and a TGI [24] of over 100 µM. It also gave a TGI [25] of over 100 µM, a TGI [26] of over 100 µM and a TGI [27] of over 100 µM. It also gave a TGI [28] of over 100 µM, a TGI [29] of over 100 µM and a TGI [30] of over 100 µM. For the same compound, the TGI [31] was over 100 µM, the TGI [32] was over 100 µM and the TGI [33] was over 100 µM. For the same compound, the TGI [34] was over 100 µM, the TGI [35] was over 100 µM and the TGI [36] was over 100 µM. It also gave a TGI [37] of over 100 µM, a TGI [38] of over 100 µM and a TGI [39] of over 100 µM. For the same compound, the TGI [40] was over 100 µM, the TGI [41] was over 100 µM and the TGI [42] was over 100 µM. It also gave a TGI [43] of over 100 µM, a TGI [44] of over 100 µM and a TGI [45] of over 100 µM. For the same compound, the TGI [46] was over 100 µM, the TGI [47] was over 100 µM and the TGI [48] was over 100 µM. It also gave a TGI [49] of over 100 µM, a TGI [50] of over 100 µM and a TGI [51] of over 100 µM. The TGI [52] was over 100 µM, the TGI [53] was over 100 µM and the TGI [54] was over 100 µM. The TGI [55] was over 100 µM.
For `Cc1cc(Br)ccc1N=NC1C(=O)ON=C1c1ccccc1` (stereo not given), the TGI [1] was over 100 µM, the TGI [2] was over 100 µM and the TGI [3] was over 100 µM. For the same compound, the TGI [4] was over 100 µM, the TGI [5] was over 100 µM and the TGI [6] was over 100 µM. It also gave a TGI [8] of over 100 µM, a TGI [9] of over 100 µM and a TGI [10] of over 100 µM. It also gave a TGI [11] of over 100 µM, a TGI [12] of over 100 µM and a TGI [13] of over 100 µM. The TGI [14] was over 100 µM, the TGI [15] was over 100 µM and the TGI [16] was over 100 µM. The TGI [17] was over 100 µM, the TGI [19] was over 100 µM and the TGI [20] was over 100 µM. For the same compound, the TGI [21] was over 100 µM, the TGI [23] was 76.4 µM and the TGI [24] was over 100 µM. For the same compound, the TGI [56] was over 100 µM, the TGI [26] was over 100 µM and the TGI [27] was over 100 µM. It also gave a TGI [28] of over 100 µM, a TGI [29] of over 100 µM and a TGI [57] of over 100 µM. It also gave a TGI [30] of over 100 µM, a TGI [31] of over 100 µM and a TGI [32] of over 100 µM. It also gave a TGI [33] of over 100 µM, a TGI [58] of over 100 µM and a TGI [34] of over 100 µM. The TGI [35] was over 100 µM, the TGI [36] was over 100 µM and the TGI [37] was over 100 µM. For the same compound, the TGI [38] was over 100 µM, the TGI [39] was over 100 µM and the TGI [40] was over 100 µM. It also gave a TGI [41] of over 100 µM, a TGI [59] of over 100 µM and a TGI [42] of over 100 µM. For the same compound, the TGI [43] was over 100 µM, the TGI [44] was over 100 µM and the TGI [45] was over 100 µM. It also gave a TGI [46] of over 100 µM, a TGI [47] of 29.6 µM and a TGI [48] of over 100 µM. For the same compound, the TGI [49] was over 100 µM, the TGI [50] was over 100 µM and the TGI [51] was over 100 µM. The TGI [52] was over 100 µM, the TGI [53] was over 100 µM and the TGI [54] was over 100 µM. It also gave a TGI [55] of over 100 µM.

From PubChem BioAssay (NCI)
